Measurements taken from patent publication US7858044B2, “Multi-well plate providing a high-density storage and assay platform” (Nexus Biosystems, Inc., priority 2003, dated 2010).

Target: recombinant human CYP 3A4 (Homo sapiens, UniProt P08684)
Test: CYP 3A4 isozyme inhibition screen with fluorogenic substrate BOMR in 3456-well plate
Conditions: concentration series

Sequence of recombinant human CYP 3A4 (P08684 whole entry): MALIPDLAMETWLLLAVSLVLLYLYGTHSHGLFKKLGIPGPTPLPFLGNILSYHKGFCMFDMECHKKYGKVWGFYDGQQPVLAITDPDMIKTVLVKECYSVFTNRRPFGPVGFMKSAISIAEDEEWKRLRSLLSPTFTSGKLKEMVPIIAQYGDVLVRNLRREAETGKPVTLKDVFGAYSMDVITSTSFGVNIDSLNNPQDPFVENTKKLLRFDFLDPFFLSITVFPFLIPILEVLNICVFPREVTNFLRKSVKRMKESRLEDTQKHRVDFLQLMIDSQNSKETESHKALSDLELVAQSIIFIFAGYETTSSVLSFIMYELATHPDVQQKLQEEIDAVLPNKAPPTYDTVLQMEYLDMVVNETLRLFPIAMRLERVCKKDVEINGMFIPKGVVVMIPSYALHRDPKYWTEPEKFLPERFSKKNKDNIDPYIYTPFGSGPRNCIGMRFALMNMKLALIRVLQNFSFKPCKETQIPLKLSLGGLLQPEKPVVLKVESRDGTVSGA

With C[C@]12CC[C@H]3[C@@H](CCC4=CC(=O)CC[C@@]43C)[C@@H]1CC[C@@H]2O [testosterone] the “Potentiation of CYP 3A4 isozyme” value was “Potentiation”.
